According to patent publication US20250380696A1, “METHOD FOR CONTROLLING UNDESIRED PLANTS AND PROMOTING GROWTH OF USEFUL PLANTS” (ISHIHARA SANGYO KAISHA, LTD., priority 2022, published 2025):
Where two headings read alike, the source gives them in different places.

Tested on: Italian ryegrass (Lolium multiflorum)
Assay: (16) Herbicidal effect test (comparative test), pot, spray at 2.5 to 3.0 leaf stage
Type: in vivo
Details: Lolium multiflorum, read-out: Growth inhibition rate (%) Measured value
Source text: [formula] • X: growth inhibition rate when treated with α (g/ha) of compound A, • Y: growth inhibition rate when treated with β (g/ha) of compound B, • E: growth inhibition rate expected when treated with α (g/ha) of compound A and β (g/ha) of compound B (expected value).
Upland soil was put in a 1/1,000,000 hectare pot, and seeds of Italian ryegrass (Lolium multiflorum) were sown. When Italian ryegrass reached 2.5 to 3.0 leaf stage, a water-based suspension containing tiafenacil as the active ingredient, prepared by a conventional method for preparing a water-based suspension, a water-based suspension containing saflufenacil as the active ingredient (tradename: Sharpen, manufactured by BASF), a wettable powder containing fomesafen as the active ingredient, prepared by a conventional method for preparing a wettable powder, an emulsifiable concentrate containing fluthiacet-methyl as the active ingredient (tradename: Attackshot emulsifiable concentrate, manufactured by MARUWA Biochemical Co., Ltd.), a dry flowable containing carfentrazone-ethyl as the active ingredient (tradename: Task DF, manufactured by ISHIHARA SANGYO KAISHA, LTD.) or a water-based suspension containing pyraflufen-ethyl as the active ingredient (tradename: ECOPART flowable, manufactured by NIHON NOHYAKU CO., LTD.), and an emulsifiable concentrate containing S-metolachlor as the active ingredient (tradename: Dual Gold, manufactured by Syngenta) or a wettable powder containing metribuzin as the active ingredient (tradename: SENCOR wettable powder, manufactured by Bayer Crop Science), were diluted with water (in an amount corresponding to 200 liter per hectare) containing 0.5 vol % of an agricultural spreader (tradename: Destiny HC, manufactured by Winfield Solutions, LLC.) and sprayed by a small spray gun (model: W-101-132G, manufactured by ANEST IWATA Corporation). On the 4th day after spraying, the state of growth of the Italian ryegrass was visually observed, and the growth inhibition rate (%) was obtained in accordance with the evaluation standards described in the above (1) herbicidal effect test, and the results are shown in Table 16. Further, the expected value of the growth inhibition rate (%) was calculated in accordance with the Colby's formula described in the above (1) herbicidal effect test, and the results are also shown in Table 16.

[1] = Dose 12.5 g/ha, 4th day after spraying

**Q.** With `CS(=O)(=O)NC(=O)c1cc(Oc2ccc(C(F)(F)F)cc2Cl)ccc1[N+](=O)[O-]` [fomesafen] as the molecule, how does the inhibition at 12.5 g/ha [1] read?
**A.** 8%

**Q.** For `CCOC(=O)C(Cl)Cc1cc(-n2nc(C)n(C(F)F)c2=O)c(F)cc1Cl` (centres unmarked) [carfentrazone-ethyl], which inhibition at 12.5 g/ha is on record?
**A.** 12%

**Q.** `CC(C)N(C)S(=O)(=O)NC(=O)c1cc(-n2c(=O)cc(C(F)(F)F)n(C)c2=O)c(F)cc1Cl` [saflufenacil] was tested. Which inhibition at 12.5 g/ha [1] did it give?
**A.** 33%

**Q.** With `CCOC(=O)COc1cc(-c2nn(C)c(OC(F)F)c2Cl)c(F)cc1Cl` [pyraflufen-ethyl] as the molecule, how does the inhibition at 12.5 g/ha read?
**A.** 25%

**Q.** How did the inhibition at 12.5 g/ha [1] turn out when `COC(=O)CSc1cc(/N=c2\sc(=O)n3n2CCCC3)c(F)cc1Cl` [fluthiacet-methyl] was run?
**A.** 12%
